In US9974304B2, “Use of macrocyclic picolinamides as fungicides” (DOW AGROSCIENCES LLC, priority 2013, dated 2018):

COc1ccnc(C(=O)N[C@H]2COC[C@H](Oc3ccccc3)[C@@H](Cc3ccccc3)[C@H](C)OC2=O)c1OC(C)=O [Compound 81]
melting point: 75 to 81 °C

COc1ccnc(C(=O)N[C@H]2COC[C@H](Oc3ccccc3)[C@@H](CCC(C)C)[C@H](C)OC2=O)c1OC(C)=O [Compound 47]
melting point: 66 to 70 °C
